Measured values from US7112555B1, “Use of glycuronic polysaccharides and oligosaccharides as phytosanitary products and/or fertiliser” (Centre National de la Recherche Scientifique, priority 1999, dated 2006).

Assays:
1,3β-D-glucanase = 1,3β-D-glucanase response induced in the protoplasts of Rubus; type: cell-based, Rubus fruticosus L.; conditions: for 1,3-β-D-glucanase activity (% control): elicitor 50 nM, 2.10^6 protoplasts
Protocol: (§1) Experimental conditions: (1) preparation of protoplasts from cell suspensions of Rubus fruticosus L.; (2) incubation, or not, of n samples of 2.10^6 protoplasts in the presence of “elicitors” (1,4-D-glucuronan polymers and 1,4β-D-galacturonan (400 μg/L) polymers, 1,4β-D-glucuronan oligomers of average DP 8, 1,4β-D-mannuronan oligomers of DP 4, and 1,4β-D-guluronan oligomers of DP 4 (50 nM)); (3) after 20 minutes, the protoplasts whether may be treated or not, are subjected to enzymatic extraction. 2 μg of proteins are used per enzymatic test, and per incubation period. The viability of the protoplasts is maintained at 95% for an experimental period of 6 hours; the Evans blue viability test used verifies the integrity of the plasmalemma.
Methodology: measurement of activity (1,3β-D-glucanase) is based on the calorimetric dosage (ferricyan test) of the substrate-reducing units (reduced hexamer from laminarin) released during hydrolysis. Based on the kinetics developed, curves are traced whose equations make it possible to calculate the speed of the enzymatic reaction. 2 kinetics, at least, are developed per sample, and per experimental “set”. In general, at least 8 kinematics from samples of 2 independent “sets” are developed.
Results: the enzymatic activation elicited in the protoplasts is expressed as a % of the activity in the controls.

[1] = system: xyloglucan endotransglycolase; test: Xyloglucan endotransglycolase (XET) response induced in protoplasts of Rubus; type: cell-based; conditions: 50 nM, in 20 minutes
Protocol: Experimental elicitation conditions. 2.10^6 protoplasts in 1 ml Tris-HCl buffer (pH 4.8) are incubated in the presence, or not, of an elicitor (50 nM) or of a hormone (50 nM): mannuronan oligomer of DP4 or glucuronan oligomer of DP8 or gibberellin GA3. After 20, 40, 60, 100 and 120 minutes of interaction, the protoplasts are recovered by centrifugation, then subjected to enzymatic extraction.
Methodology: measurement of XET activity is carried out in the wells of microtitration plates in 4 stages. Stage 1: immobilization of the acceptor, i.e. the neoglycoprotein XXLG≈BSA. Stage 2: introduction of the reaction medium (XET enzymatic extraction (equivalent to 1 μg of proteins) substrate marked DIG, i.e. XG≈DIG in the Tris-HC1 buffer, pH=7, 25 mM). Stage 3: immunomarking according to the anti-DIG marked peroxydase sequence, anti-peroxydase marked peroxydase. Stage 4: dosage of the peroxydase activity in a citrate-phosphate buffer ([…], pH 5.5).
The peroxydase activity is measured at 492 nm. At least 3 curves of peroxydase activity are traced per experimental condition, and the experiments are carried out using 3 protoplast suspensions. The XET activity is measured by the slope (ΔA 492) of the curve deduced by linear regression from 9 peroxydase kinetics curves.

1,4β-D-glucanase = 1,4β-D-glucanase response induced in protoplasts of Rubus; type: cell-based, Rubus fruticosus L.; conditions: elicitor 50 nM, 20 minutes, 2.10^6 protoplasts
Protocol: as §1
Experimental elicitation conditions: identical to those reported above.
Methodology: measurement of activity (1,4β-D-glucanase) is based on the calorimetric dosage (ferricyan test) described above of the substrate-reducing units (reduced cellopentaose) released during hydrolysis.

Row | Compound | amplification factor of XET activity versus non-elicited protoplasts [1] | 1,3-β-D-glucanase activity (% control) (1,3β-D-glucanase; 20 minutes) | other results
1 | 1,4β-D-glucuronan polymer | – | – | amplification factor of 1,3-β-D-glucanase activity in plant protoplasts (1,3β-D-glucanase; nanomolar concentration, in 20 minutes): 1.3
2 | glucuronan oligomer of DP8 | 1.62 | – | –
3 | oligo 1,4-β-D-mannuronan of DP 4 | 2.12 | 122 % control | –
4 | C=C1C[C@]23C[C@@]1(O)CC[C@H]2[C@@]12C=C[C@H](O)[C@](C)(C(=O)O1)[C@H]2[C@@H]3C(=O)O [GA3, gibberellin GA3, reference compound] | 1.12 | – | –
5 | oligo 1,4-β-D-guluronan of DP 4 [e] | – | 146 % control | 1,4β-D-glucanase activity (% control) (1,4β-D-glucanase): 101 % control; effectiveness of 1,3-β-D-glucanase induction among the other products tested (1,3β-D-glucanase; 50 nM, 20 minutes): most effective
